Test results from publication PMC9844085, “Bioinformatics-Structural Approach to the Search for New D-Amino Acid Oxidases” (Acta Naturae, 2022).

Molecular target: T1, NhyDAAO (Natronosporangium hydrolyticum, UniProt A0A895YFV4)
T1 construct: gene JQS43_10680; recombinant, gene cloned, expression in E. coli in progress
T1 sequence (A0A895YFV4 1-316): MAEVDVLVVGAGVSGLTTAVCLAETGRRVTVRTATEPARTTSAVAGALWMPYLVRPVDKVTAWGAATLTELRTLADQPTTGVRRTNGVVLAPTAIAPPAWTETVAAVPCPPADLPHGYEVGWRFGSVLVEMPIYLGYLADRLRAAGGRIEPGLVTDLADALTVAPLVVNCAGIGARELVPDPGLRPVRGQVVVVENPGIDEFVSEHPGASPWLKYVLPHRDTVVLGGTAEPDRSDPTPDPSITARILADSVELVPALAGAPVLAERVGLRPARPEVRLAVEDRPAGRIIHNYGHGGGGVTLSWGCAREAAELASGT
Assay: D-amino acid oxidase activity, preliminary experiments, method not given
Type: cell-based
Settings: conditions and enzyme purity not told; named among the best substrates

SMILES	D-amino acid oxidase activity, preliminary experiments, method not given
CC(C)C[C@@H](N)C(=O)O [D-Leu]	Preliminary experiments confirmed that D-Leu and D-Phe are the best substrates for NhyDAAO
N[C@H](Cc1ccccc1)C(=O)O [D-Phe]	Preliminary experiments confirmed that D-Leu and D-Phe are the best substrates for NhyDAAO
